This note sets out measurements from US20210122730A1, “GLUCOCORTICOID RECEPTOR MODULATORS” (ORIC Pharmaceuticals, Inc., priority 2017, published 2021).

Some results are limits rather than exact numbers.

Data set [1] has as its target T1, GR (Homo sapiens, UniProt P04150).
T1 construct: expressed in transfected cells; host or cells: CHO-K1
T1 sequence (P04150 1-777): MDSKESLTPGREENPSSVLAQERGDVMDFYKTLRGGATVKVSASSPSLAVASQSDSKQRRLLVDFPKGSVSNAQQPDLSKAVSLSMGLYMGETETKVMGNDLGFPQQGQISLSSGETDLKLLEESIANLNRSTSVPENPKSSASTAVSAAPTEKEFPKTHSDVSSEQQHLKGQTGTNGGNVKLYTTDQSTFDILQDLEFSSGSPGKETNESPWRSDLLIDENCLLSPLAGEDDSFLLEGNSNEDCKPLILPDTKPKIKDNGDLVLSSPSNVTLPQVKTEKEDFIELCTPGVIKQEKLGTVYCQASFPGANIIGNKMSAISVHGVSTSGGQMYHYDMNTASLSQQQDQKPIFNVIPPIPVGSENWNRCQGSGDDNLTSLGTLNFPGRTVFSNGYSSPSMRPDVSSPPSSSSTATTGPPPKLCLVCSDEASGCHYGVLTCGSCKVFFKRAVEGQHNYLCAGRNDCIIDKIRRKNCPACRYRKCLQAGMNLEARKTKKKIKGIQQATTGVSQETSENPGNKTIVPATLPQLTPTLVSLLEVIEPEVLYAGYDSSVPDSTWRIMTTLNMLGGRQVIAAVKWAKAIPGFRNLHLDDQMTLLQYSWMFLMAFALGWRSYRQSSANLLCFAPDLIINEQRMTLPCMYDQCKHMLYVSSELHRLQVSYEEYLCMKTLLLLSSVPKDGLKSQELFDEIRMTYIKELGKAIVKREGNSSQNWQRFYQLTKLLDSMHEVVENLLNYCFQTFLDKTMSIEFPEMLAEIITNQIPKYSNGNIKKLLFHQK
As to the kind of experiment: In Vitro GR Luciferase Reporter Assay (antagonist mode, CHO-K1-GR-MMTV-Luc reporter cells). In kind it is cell-based. Particulars: antagonist mode, 10 nM Dexamethasone. The essentials:
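Antagonist mode: compounds (8 serial 1:5 dilutions) added to GR-MMTV-luciferase CHO-K1 reporter cells co-exposed to 10 nM dexamethasone final, in phenol red-free DMEM plus 10% CSS. After roughly 18-24 h at 37° C, OneGlo luminescence read and IC50 calculated.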
In general terms: In a reporter assay the amount or activity of a reporter protein is the signal.

The target in data set [2] is T2, CYP2C8 (Homo sapiens, UniProt P10632).
T2 construct: Pooled human microsomes were obtained from Sekisui XenoTech, KS; tissue Sekisui XenoTech, KS; host or cells: pooled human liver microsomes
T2 sequence (P10632 1-490): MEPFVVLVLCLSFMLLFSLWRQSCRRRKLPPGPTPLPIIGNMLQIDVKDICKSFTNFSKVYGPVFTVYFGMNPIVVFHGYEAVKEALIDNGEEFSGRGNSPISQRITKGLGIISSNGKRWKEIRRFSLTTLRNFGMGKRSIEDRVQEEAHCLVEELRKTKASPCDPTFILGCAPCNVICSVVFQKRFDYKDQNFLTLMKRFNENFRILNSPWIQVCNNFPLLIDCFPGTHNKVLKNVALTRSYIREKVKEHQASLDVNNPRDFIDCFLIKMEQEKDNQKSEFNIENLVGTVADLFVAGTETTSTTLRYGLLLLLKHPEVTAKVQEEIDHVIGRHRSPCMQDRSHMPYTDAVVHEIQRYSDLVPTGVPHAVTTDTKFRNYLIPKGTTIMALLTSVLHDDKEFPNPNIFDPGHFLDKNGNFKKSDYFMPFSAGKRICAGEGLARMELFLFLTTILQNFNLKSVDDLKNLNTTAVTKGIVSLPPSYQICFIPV
As to the kind of experiment: CYP Inhibition Assay (CYP2C8, human liver microsomes, paclitaxel substrate). In kind it is in vitro ADME. Conditions: pH 7.4; pooled human liver microsomes 0.1 mg/mL, probe substrate paclitaxel. As to the method:
Example B: CYP Inhibition Assay
Objective: To assess the % inhibition of test compounds against CYP2C8 enzyme in human liver microsomes.
Pooled human microsomes were obtained from Sekisui XenoTech, KS, and were used for in vitro assessment of compound inhibitory potential of the major drug metabolizing human CYP enzymes.
Test compounds were dissolved in DMSO as 10 mM stock solutions and diluted to 200 µM in acetonitrile as working solutions. The total concentrations of DMSO and acetonitrile were 0.02% and 0.5%, respectively, in the assay.
The assay was performed in duplicate in a 96-well plate. The reaction mixture ([…]) containing a final concentration of 0.1 mg/mL pooled human liver microsomes, 50 mM potassium phosphate, pH 7.4 buffer, was re-warmed at 37° C. for 5 minutes. The reaction was initiated with NADPH solution which was at 1 mM final concentration, and carried out for 5 minutes at 37° C. It was terminated by the addition of 3-fold volume of quench solution (1:1 acetonitrile:methanol with 0.1% formic acid and the internal standard of tolbutamide). The sample was vortexed, centrifuged at 4,000 rpm for 15 min at 4° C. The incubation in the presence of vehicle (0.02% DMSO and 0.5% acetonitrile) was used as the enzyme activity control. The analyses of metabolite 6α-hydroxypaclitaxel in supernatant was performed with LC-MS/MS method (Sciex API 4500 Qtrap coupled to a Shimadzu LC-20AD HPLC).
The CYP enzyme activity was determined based on the formation of 6a-hydroxypaclitaxel metabolite. The % inhibition was calculated using this equation: % Inhibition=100×(1−Ainactivator/Avehicle), where Ainactivator is the CYP enzyme activity in the presence of test compound, and Avehicle is the CYP activity in the presence of vehicle.
For orientation: Microsomes from liver hold many membrane-bound enzymes, among them those of drug oxidation.

For the compound `CCN([C@H]1CCC2=Cc3c(cnn3-c3ccc(F)cc3)C[C@]2(C(=O)c2cc(C(F)(F)F)ccn2)C1)S(=O)(=O)c1ccn(C)n1` [Example 155, N-ethyl-N-((4aS,6S)-1-(4-fluorophenyl)-4a-(4-(trifluoromethyl)picolinoyl)-4,4a,5,6,7,8-hexahydro-1H-benzo[f]indazol-6-yl)-1-methyl-1H-pyrazole-3-sulfonamide], the IC50 in data set [1] is not above 100 nM. The compound also gave an inhibition at 5 min in data set [2] of 25 to 50%.
In data set [1], `CN([C@H]1CCC2=Cc3c(cnn3-c3ccc(F)cc3)C[C@]2(C(=O)c2cc(C(F)(F)F)ccn2)C1)S(=O)(=O)c1ccnn1C` [Example 156, N-((4aS,6S)-1-(4-fluorophenyl)-4a-(4-(trifluoromethyl)picolinoyl)-4,4a,5,6,7,8-hexahydro-1H-benzo[f]indazol-6-yl)-N,1-dimethyl-1H-pyrazole-5-sulfonamide] displayed an IC50 not above 100 nM. Also, the inhibition at 5 min in data set [2] is 75 to 90%.
In the same order, the values of `Cn1ccc(S(=O)(=O)N(C2CC2)[C@H]2CCC3=Cc4c(cnn4-c4ccc(F)cc4)C[C@]3(C(=O)c3ncc(C4CC4)s3)C2)n1` [Example 160, N-cyclopropyl-N-((4aS,6S)-4a-(5-cyclopropylthiazole-2-carbonyl)-1-(4-fluorophenyl)-4,4a,5,6,7,8-hexahydro-1H-benzo[f]indazol-6-yl)-1-methyl-1H-pyrazole-3-sulfonamide] are not above 100 nM and 50 to 75%.
The corresponding values for `Cn1ccc(S(=O)(=O)N(C2CC2)[C@H]2CCC3=Cc4c(cnn4-c4ccc(F)cc4)C[C@]3(C(=O)c3ncc(C(F)(F)F)s3)C2)n1` [Example 164, N-cyclopropyl-N-((4aS,6S)-1-(4-fluorophenyl)-4a-(5 (trifluoromethyl)thiazole-2-carbonyl)-4,4a,5,6,7,8-hexahydro-1H-benzo[f]indazol-6-yl)-1-methyl-1H-pyrazole-3-sulfonamide] are not above 100 nM and 50 to 75%.
With `CCN([C@H]1CCC2=Cc3c(cnn3-c3ccc(F)cc3)C[C@]2(C(=O)c2cc(C(F)(F)F)ccn2)C1)S(=O)(=O)c1cnn(C(F)F)c1` [Example 166, 1-(difluoromethyl)-N-ethyl-N-((4aS,6S)-1-(4-fluorophenyl)-4a-(4-(trifluoromethyl)picolinoyl)-4,4a,5,6,7,8-hexahydro-1H-benzo[f]indazol-6-yl)-1H-pyrazole-4-sulfonamide], the IC50 in data set [1] is not above 100 nM. Moreover, the inhibition at 5 min in data set [2] is 25 to 50%.
With `CN([C@H]1CCC2=Cc3c(cnn3-c3ccc(F)cc3)C[C@]2(C(=O)c2cc(C(F)(F)F)ccn2)C1)S(=O)(=O)c1cn(C)nn1` [Example 170, N-((4aS,6S)-1-(4-fluorophenyl)-4a-(4-(trifluoromethyl)picolinoyl)-4,4a,5,6,7,8-hexahydro-1H-benzo[f]indazol-6-yl)-N,1-dimethyl-1H-1,2,3-triazole-4-sulfonamide], in data set [1], the IC50 is not above 100 nM. Also, the inhibition at 5 min in data set [2] was not above 25%.
In turn, `Cn1cc(S(=O)(=O)N(C2CC2)[C@H]2CCC3=Cc4c(cnn4-c4ccc(F)cc4)C[C@]3(C(=O)c3ncc(C(F)(F)F)s3)C2)cn1` [Example 176, N-cyclopropyl-N-((4aS,6S)-1-(4-fluorophenyl)-4a-(5 (trifluoromethyl)thiazole-2-carbonyl)-4,4a,5,6,7,8-hexahydro-1H-benzo[f]indazol-6-yl)-1-methyl-1H-pyrazole-4-sulfonamide] had an IC50 in data set [1] not above 100 nM. In data set [2], the inhibition at 5 min fell in the range of 25 to 50%.
Turning to `Cn1ccc(S(=O)(=O)N(CC2CC2)[C@H]2CCC3=Cc4c(cnn4-c4ccc(F)cc4)C[C@]3(C(=O)c3cc(C(F)(F)F)ccn3)C2)n1` [Example 178, N-(cyclopropylmethyl)-N-((4aS,6S)-1-(4-fluorophenyl)-4a-(4-(trifluoromethyl)picolinoyl)-4,4a,5,6,7,8-hexahydro-1H-benzo[f]indazol-6-yl)-1-methyl-1H-pyrazole-3-sulfonamide], in data set [1], the IC50 is not above 100 nM. In addition, in data set [2], the inhibition at 5 min was in the range of 25 to 50%.
For `CC(C)N([C@H]1CCC2=Cc3c(cnn3-c3ccc(F)cc3)C[C@]2(C(=O)c2ncc(C(F)(F)F)s2)C1)S(=O)(=O)c1ccn(C)n1` [Example 182, N-((4aS,6S)-1-(4-fluorophenyl)-4a-(5-(trifluoromethyl)thiazole-2-carbonyl)-4,4a,5,6,7,8-hexahydro-1H-benzo[f]indazol-6-yl)-N-isopropyl-1-methyl-1H-pyrazole-3-sulfonamide], the IC50 in data set [1] was not above 100 nM. The compound also gave an inhibition at 5 min in data set [2] of 50 to 75%.
The corresponding values for `Cn1ncc(S(=O)(=O)N(C2CC2)[C@H]2CCC3=Cc4c(cnn4-c4ccc(F)cc4)C[C@]3(C(=O)c3ncc(C(F)(F)F)s3)C2)n1` [Example 183, N-cyclopropyl-N-((4aS,6S)-1-(4-fluorophenyl)-4a-(5 (trifluoromethyl)thiazole-2-carbonyl)-4,4a,5,6,7,8-hexahydro-1H-benzo[f]indazol-6-yl)-2-methyl-2H-1,2,3-triazole-4-sulfonamide] are not above 100 nM and 25 to 50%.
As to `Cn1ccc(S(=O)(=O)N(CC(F)(F)F)[C@H]2CCC3=Cc4c(cnn4-c4ccc(F)cc4)C[C@]3(C(=O)c3ncc(C(F)(F)F)s3)C2)n1` [Example 184, N-((4aS,6S)-1-(4-fluorophenyl)-4a-(5-(trifluoromethyl)thiazole-2-carbonyl)-4,4a,5,6,7,8-hexahydro-1H-benzo[f]indazol-6-yl)-1-methyl-N-(2,2,2-trifluoroethyl)-1H-pyrazole-3-sulfonamide], in data set [1], the IC50 was not above 100 nM. Moreover, the inhibition at 5 min in data set [2] fell in the range of 25 to 50%.
The corresponding values for `Cn1ccc(S(=O)(=O)N(CC(C)(C)O)[C@H]2CCC3=Cc4c(cnn4-c4ccc(F)cc4)C[C@]3(C(=O)c3ncc(C(F)(F)F)s3)C2)n1` [Example 189, N-((4aS,6S)-1-(4-fluorophenyl)-4a-(5-(trifluoromethyl)thiazole-2-carbonyl)-4,4a,5,6,7,8-hexahydro-1H-benzo[f]indazol-6-yl)-N-(2-hydroxy-2-methylpropyl)-1-methyl-1H-pyrazole-3-sulfonamide] are not above 100 nM and 50 to 75%.
The corresponding values for `CC(C)N([C@H]1CCC2=Cc3c(cnn3-c3ccc(F)cc3)C[C@]2(C(=O)c2ncc(C(F)(F)F)s2)C1)S(=O)(=O)c1cnn(C)c1` [Example 191, N-((4aS,6S)-1-(4-fluorophenyl)-4a-(5-(trifluoromethyl)thiazole-2-carbonyl)-4,4a,5,6,7,8-hexahydro-1H-benzo[f]indazol-6-yl)-N-isopropyl-1-methyl-1H-pyrazole-4-sulfonamide] are not above 100 nM and 25 to 50%.

One may read the IC50 as the point on the concentration scale where inhibition reaches its midpoint. A word on the inhibition: it is the change of the read-out against control, counted positive when it falls. A higher inhibition goes with a response far below the control.
